Key:
[1] = system: PD-1 Effector Cells with PD-L1+ target cells (TCR signaling); assay: PD-1/PD-L1 Blockade Bioassay with GHCer or SSEA4Cer treated PD-1 Effector Cells; type: cell-based; details: various concentration of ceramide on PD-1 Effector Cells 24 hours, 6 hours with PD-L1+ cells; FIG. 6 as printed
Procedure: Various concentration of GHCer or SSEA4Cer was incubated with PD-1 Effector Cells (PD-1/PD-L1 Blockade Bioassay Kit, Promega, Cat# J3011), then incubate for 24 hours at 37° C. PD-L+ target cells (PD-1/PD-L1 Blockade Bioassay Kit, Promega, Cat# J3011) were seeded in 96 well plate and incubate for 24 hours at 37° C. with 5% CO2. The growth medium from the plate coated PD- L1+ cells was replaced by the GHCer or SSEA4Cer/Effector cells R×n and incubated for 6 hours. Plate was removed to ambient temperature for 10 mins. Bio-Glo™ Reagent was added and incubate for 15 mins then read by luminometer.

[2] = system: PD-1/PD-L1 engagement inhibited TCR signaling (PD-1 Effector Cells, PD-L1+ target cells); assay: PD-1/PD-L1 Blockade Bioassay, SSEA4Cer treated effector cells with Keytruda or Tecentriq; type: cell-based; details: 6 hours, FIG. 8; for Release of PD-1/PD-L1 engagement inhibited TCR signaling by checkpoint antibody: 2 μM antibody, effector cells with 40 μM SSEA4Cer
Procedure: (§1) 40 μM SSEA4Cer was incubated with PD-1 Effector Cells (PD-1/PD-L1 Blockade Bioassay Kit, Promega, Cat# J3011), then incubate for 24 hours at 37° C. with 5% CO2. PD-L1+ target cells were seeded in 96 well plate and incubate for 24 hours at 37° C. with 5% CO2. The growth medium from the plates coated PD-L+ cells was replaced by the SSEA4Cer/Effector cells R×n with 2 μM Keytruda, the Anti-PD-1 mAb, or 2 μM Tecentriq, the Anti-PD-L1 mAb, and incubate for 6 hours at 37° C. with 5% CO2. Plate was removed to ambient temperature for 10 mins. Bio-Glo™ Reagent was added and incubate for 15 mins then read by luminometer.

Jurkat/NFAT-Re Luc cells = assay: Jurkat/NFAT-Re Luc T cell activation by Anti-CD3/CD28, luciferase reporter, after pre-incubation with Globo series ceramides; type: cell-based, human; details: various concentrations of ceramide, pre-incubated 18-24 hours; 6 hours activation; FIG. 2
Procedure: Jurkat/NFAT-Re Luc cells (Promega, Inc., Cat# G7102) were pre-incubated with or without various concentrations of chemically synthesized Globo H ceramide (GHCer) or SSEA-4 ceramide (SSEA4Cer) for 18-24 hours in 48-well culture plate. Cells were collected and transferred to white, flat-bottom 96-well assay plates (Greiner Bio-One GmbH, Cat#655073) coated overnight with Anti-human CD3 (100 ng/well) (BioLegend, Inc. Cat#317326), and Anti-human CD28 (300 ng/well) (BioLegend, Inc. Cat#302914) in 37° C. incubator for a 6 hours activation. Assay plates were removed from the incubator and equilibrated to room temperature (22-25° C.) for 15 minutes. 75 μL of Bio-Glo™ Luciferase Assay Reagent (Promega, Inc. Cat#G7940) was added and incubated the plates at RT for 15 minutes. Luminescence was measured using a microplate reader SpectraMax L (Molecular Devices, LLC.). The Photomultiplier Tube (PMT) sensitivity was set as autorange and calibrated at 570 nm. Fold of induction was calculated by RLUactivated/RLUunstimulated.

[3] = system: PD-1/PD-L1 engagement inhibited TCR signaling (PD-1 Effector Cells, PD-L1+ target cells); assay: PD-1/PD-L1 Blockade Bioassay, GHCer treated effector cells with Keytruda or Tecentriq; type: cell-based; details: 6 hours, FIG. 7; for Release of PD-1/PD-L1 engagement inhibited TCR signaling by checkpoint antibody: 2 μM antibody, effector cells with 40 μM GHCer
Procedure: as §1, with “40 μM GHCer was incubated” for “40 μM SSEA4Cer was incubated”, “by the GHCer/Effector cells R×n” for “by the SSEA4Cer/Effector cells R×n”, “or 2 lμM Tecentriq, the” for “or 2 μM Tecentriq, the”

[4] = system: SSEA4Cer and PD-1/PD-L1 engagement inhibited TCR signaling (PD-1 Effector Cells, PD-L1+ target cells); assay: PD-1/PD-L1 Blockade Bioassay, SSEA4Cer pre-incubated with OBI-898, combined with Keytruda or Tecentriq; type: cell-based; details: 5 μM OBI-898 with SSEA4Cer 4 hours; 2 μM Keytruda or 2 μM Tecentriq, 6 hours; FIG. 11 as printed
Procedure: SSEA4Cer were incubated with 5 μM OBI-898 in assay medium at 37° C. for 4 hours. Samples were centrifuged at 8000×g for 5 minutes twice and supernatant were harvested and incubated with PD-1 Effector Cells for 24 hours. PD-L+ target cells were seeded in 96 well plate and incubate for 24 hours at 37° C. with 5% CO2. The growth medium from the plates coated PD- L1 cells was replaced by the SSEA4Cer/Effector cells R×n with 2 μM Keytruda or 2 μM Tecentriq and incubate for 6 hours at 37° C. with 5% CO2. Plate was removed to ambient temperature for 10 mins. Bio-Glo™ Reagent was added and incubate for 15 mins then read by luminometer.

[5] = system: GHCer and PD-1/PD-L1 engagement inhibited TCR signaling (PD-1 Effector Cells, PD-L1+ target cells); assay: PD-1/PD-L1 Blockade Bioassay, GHCer pre-incubated with OBI-888, combined with Keytruda or Tecentriq; type: cell-based; details: 10 μM OBI-888 with GHCer 4 hours; 2 μM Keytruda or 2 μM Tecentriq, 6 hours; FIG. 10 as printed
Procedure: GHCer were incubated with 10 μM OBI-888 in assay medium containing 99% RPMI 1640/1% FBS (PD-1/PD-L1 Blockade Bioassay Kit, Promega, Cat# J3011) at 37° C. for 4 hours. Samples were centrifuged at 8000×g for 5 minutes twice and supernatant were harvested and incubated with PD-1 Effector Cells for 24 hours. PD-L1+ target cells were seeded in 96 well plate and incubate for 24 hours at 37° C. with 5% CO2. The growth medium from the plates coated PD- L1 cells was replaced by the GHCer/Effector cells R×n with 2 μM Keytruda or 2 μM Tecentriq and incubate for 6 hours at 37° C. with 5% CO2. Plate was removed to ambient temperature for 10 mins. Bio-Glo™ Reagent was added and incubate for 15 mins then read by luminometer.

Substance: SSEA-4 ceramide [SSEA4Cer]
- Suppression of TCR activation signaling pathway together with PD-1/PD-L1 engagement [1]: acts synergistically with PD-1/PD-L1 engagement to suppress the TCR activation signaling pathway
- Effect of SSEA4Cer incorporation on Keytruda or Tecentriq released TCR signaling ([2]; 40 μM SSEA4Cer on effector cells 24 hours, 2 μM Keytruda or 2 μM Tecentriq): reduced Keytruda or Tecentriq released PD-1/PD-L1 engagement inhibited TCR signaling
- Jurkat T cell activation to Anti-CD3/28 stimulation (fold of induction, RLUactivated/RLUunstimulated) (Jurkat/NFAT-Re Luc cells): suppress the Jurkat T cell activation to Anti-CD3/28 stimulation in a dose dependent manner

Substance: Globo H ceramide [GHCer]
- Suppression of TCR activation signaling pathway together with PD-1/PD-L1 engagement [1]: acts synergistically with PD-1/PD-L1 engagement to suppress the TCR activation signaling pathway
- Effect of GHCer incorporation on Keytruda or Tecentriq released TCR signaling ([3]; 40 μM GHCer on effector cells 24 hours, 2 μM Keytruda or 2 lμM Tecentriq): reduced Keytruda or Tecentriq released PD-1/PD-L1 engagement inhibited TCR signaling
- Jurkat T cell activation to Anti-CD3/28 stimulation (fold of induction, RLUactivated/RLUunstimulated) (Jurkat/NFAT-Re Luc cells): suppress the Jurkat T cell activation to Anti-CD3/28 stimulation in a dose dependent manner

Substance: Tecentriq: the Anti-PD-L1 mAb; Roche, Lot H0125B11
- Rescue of SSEA4Cer and PD-1/PD-L1 engagement inhibited TCR signaling by combination [4]: synergistically with Keytruda or Tecentriq
- Rescue of GHCer and PD-1/PD-L1 engagement inhibited TCR signaling by combination [5]: synergistically with Keytruda or Tecentriq
- Release of PD-1/PD-L1 engagement inhibited TCR signaling by checkpoint antibody [2]: released PD-1/PD-L1 engagement inhibited TCR signaling
- Release of PD-1/PD-L1 engagement inhibited TCR signaling by checkpoint antibody [3]: released PD-1/PD-L1 engagement inhibited TCR signaling

Substance: Keytruda: the Anti-PD-1 mAb; MSD Ireland, Lot 7302614A13
- Rescue of SSEA4Cer and PD-1/PD-L1 engagement inhibited TCR signaling by combination [4]: acts synergistically with Keytruda
- Rescue of GHCer and PD-1/PD-L1 engagement inhibited TCR signaling by combination [5]: acts synergistically with Keytruda
- Release of PD-1/PD-L1 engagement inhibited TCR signaling by checkpoint antibody [2]: released PD-1/PD-L1 engagement inhibited TCR signaling
- Release of PD-1/PD-L1 engagement inhibited TCR signaling by checkpoint antibody [3]: released PD-1/PD-L1 engagement inhibited TCR signaling

Reference: patent US20190389963A1, “COMBINATION THERAPY BY USING ANTI-GLOBO H OR ANTI-SSEA-4 ANTIBODY WITH ANTI-NEGATIVE IMMUNE CHECK POINTS ANTIBODY” (OBI Pharma, Inc., priority 2018, published 2019)
